Experimental data from patent US20150065717A1, “NIPECOTIC ACID DERIVATIVE AND USE THEREOF FOR MEDICAL PURPOSES” (Toray Industries, Inc., priority 2012, published 2015).

Experiments:
recombinant human sEH = target: T1, recombinant human sEH (Homo sapiens, UniProt P34913); assay: In vitro evaluation test for sEH inhibitory activity; assay type: biochemical; conditions: recombinant human sEH 0.026 μg/mL, fluorescent substrate 6.25 μmol/L, room temperature
T1 construct: purchased Cayman
T1 sequence (P34913 1-555): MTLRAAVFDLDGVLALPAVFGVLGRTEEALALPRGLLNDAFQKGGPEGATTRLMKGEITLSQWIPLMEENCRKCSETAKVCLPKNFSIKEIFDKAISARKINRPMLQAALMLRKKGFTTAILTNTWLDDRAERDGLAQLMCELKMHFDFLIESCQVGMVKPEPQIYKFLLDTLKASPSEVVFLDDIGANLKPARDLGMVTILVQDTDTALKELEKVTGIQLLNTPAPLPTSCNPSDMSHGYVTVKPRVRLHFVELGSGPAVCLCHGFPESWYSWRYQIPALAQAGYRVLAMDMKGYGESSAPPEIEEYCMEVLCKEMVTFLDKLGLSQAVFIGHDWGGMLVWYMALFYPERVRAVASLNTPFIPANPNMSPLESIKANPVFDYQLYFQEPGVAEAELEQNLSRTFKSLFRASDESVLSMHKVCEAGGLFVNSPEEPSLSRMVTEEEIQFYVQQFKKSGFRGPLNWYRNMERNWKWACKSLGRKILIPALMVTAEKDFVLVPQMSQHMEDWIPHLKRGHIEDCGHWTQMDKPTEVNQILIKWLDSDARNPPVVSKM
Procedure: According to the method described in a known document (Analytical Biochemistry, 2005, vol. 343, p. 66-75), the sEH inhibitory activity of each nipecotic acid derivative (I) or a pharmaceutically acceptable salt thereof was evaluated using human sEH.
A recombinant human sEH (final concentration, 0.026 μg/mL; Cayman) was incubated with each test compound in 25 mM Bis-Tris-HCl buffer (pH 7.0) supplemented with 0.1 mg/mL BSA at room temperature for 30 minutes. Thereafter, cyano(6-methoxynaphthalen-2-yl)methyl 2-(3-phenyloxiran-2-yl)acetate (final concentration, 6.25 μmol/L; Cayman) was added thereto as a fluorescent substrate, and the resulting mixture was incubated at room temperature for 20 minutes. The reaction was then stopped by addition of ZnSO4 (final concentration, 0.2 mol/L), and the fluorescence intensity was measured (Fusion α (Packard); Excitation: 330 nm, Emission:485 nm).
The fluorescence intensity observed with addition of neither sEH nor a test compound was regarded as the sEH enzymatic reaction rate of 0%, and the fluorescence intensity observed with addition of sEH but without addition of a test compound was regarded as the sEH enzymatic reaction rate of 100%. From the obtained fluorescence intensity, the sEH enzymatic reaction rate of each test compound was calculated to determine IC50.

[1] = test system: rat monocrotaline-administered pulmonary hypertension model; assay: Rat monocrotaline-administered pulmonary hypertension model, administration from day of monocrotaline; assay type: in vivo, rat (Wistar strain); conditions: for right ventricular systolic pressure vs pulmonary hypertension control group / right ventricular weight ratio vs pulmonary hypertension control group: Dunnett's test p<0.05; for heart rate vs pulmonary hypertension control group / systemic systolic pressure vs pulmonary hypertension control group: Dunnett's test
Procedure: Example Compound 1 or 2 was administered to a rat monocrotaline-administered pulmonary hypertension model (Journal of Pharmacological Sciences, 2009, vol. 111, p. 235-243), and the therapeutic effect of the nipecotic acid derivative (I) or a pharmaceutically acceptable salt thereof on pulmonary hypertension was evaluated.
Rats (Wistar strain, male, 5 weeks old; JAPAN SLC, Inc.) with pulmonary hypertension induced by subcutaneous administration of an aqueous monocrotaline (Sigma Corporation) solution (60 mg/kg) to the back were provided as “group with induced pulmonary hypertension”. On the other hand, rats to which water for injection was similarly administered were provided as “normal group”.
To rats in the group with induced pulmonary hypertension, Example Compound 1 (3, 10 or 30 mg/kg) or a positive control compound tadalafil (10 mg/kg) was orally administered once per day for 24 days from the day of administration of monocrotaline. The Example Compound 1 and tadalafil were used as suspensions in 0.5% aqueous methyl cellulose solution supplemented with 0.5% Tween 80. The groups in which Example Compound 1 was administered at doses of 3, 10 and 30 mg/kg were provided as “Example Compound 1 (3 mg/kg)-administered group”, “Example Compound 1 (10 mg/kg)-administered group” and “Example Compound 1 (30 mg/kg)-administered group”, respectively. The group in which tadalafil was administered at a dose of 10 mg/kg was provided as “tadalafil-administered group”. In addition, for comparative control, 0.5% aqueous methyl cellulose solution supplemented with 0.5% Tween 80 was similarly administered to rats in the group with induced pulmonary hypertension, to provide “pulmonary hypertension control group”. Similarly, 0.5% aqueous methyl cellulose solution supplemented with 0.5% Tween 80 was administered in the normal group.
On the next day of the last administration of the test substance, the right ventricular systolic pressure, systemic systolic pressure and heart rate were measured. The measurement of the right ventricular systolic pressure and the systemic systolic pressure was carried out using an amplifier for blood pressure measurement (Nihon Kohden Corporation). The measurement of the heart rate was carried out using an instant heart rate meter unit (Nihon Kohden Corporation). On the same day, the body weight, lung wet weight, and wet weights of the right ventricle, left ventricle and septum were measured to determine the right ventricular weight ratio (right ventricular weight/(septum weight+left ventricular weight)) and the lung weight ratio (lung weight/body weight).
The lungs were stored by immersion in formalin after measurement of the wet weight. The formalin-fixed lungs were embedded in paraffin, and sections were prepared. Immunostained tissue samples were prepared using an anti-sEH antibody to study expression of sEH. Pathological specimens were prepared by Elastica-van Gieson staining to study thickening of pulmonary arteries. Immunostained tissue samples were prepared using an anti-PCNA antibody to study cell growth. The right ventricle was stored by immersion in formalin after measurement of the wet weight. The formalin-fixed right ventricle was embedded in paraffin, and sections were prepared. Pathological specimens were prepared by HE staining to study myocardial hypertrophy.
The removed lungs were homogenized in a buffer, and 14,15-EET and 14,15-DHET were extracted. The extracted 14,15-EET was hydrolyzed for conversion to 14,15-DHET, and the 14,15-DHET concentration was measured by the ELISA method. The increase in the concentration of 14,15-DHET due to the hydrolysis was regarded as the 14,15-EET concentration, and the 14,15-EET/14,15-DHET ratio was determined.
FIGS. 4 to 6 show the results on the right ventricular systolic pressure, right ventricular weight ratio and lung weight ratio determined on the next day of the last administration of the test compound. […]

[2] = 10 mg/kg orally once per day for 24 days from day of monocrotaline
[3] = 10 mg/kg orally once per day for 24 days
[4] = 3 mg/kg orally once per day for 24 days
[5] = 30 mg/kg orally once per day for 24 days from day of monocrotaline
[6] = 30 mg/kg orally once per day for 24 days

SMILES	IC50 (recombinant human sEH) [nM]	lung weight ratio vs pulmonary hypertension control group [1, 2]	right ventricular systolic pressure vs pulmonary hypertension control group [1, 2]	right ventricular weight ratio vs pulmonary hypertension control group [1, 2]	heart rate vs pulmonary hypertension control group [1, 3]	systemic systolic pressure vs pulmonary hypertension control group [1, 3]	heart rate vs pulmonary hypertension control group [1, 4]	systemic systolic pressure vs pulmonary hypertension control group [1, 4]	thickening of pulmonary arteries in lungs vs pulmonary hypertension control group ([1]; 3 mg/kg, Elastica-van Gieson staining)	myocardial hypertrophy of the right ventricle vs pulmonary hypertension control group ([1]; 3 mg/kg, HE staining)	cell growth in lungs vs pulmonary hypertension control group ([1]; 3 mg/kg, anti-PCNA immunostaining)	14,15-EET/14,15-DHET ratio in lungs vs pulmonary hypertension control group ([1]; 10 mg/kg, ELISA)	right ventricular systolic pressure vs pulmonary hypertension control group [1, 5]	right ventricular weight ratio vs pulmonary hypertension control group [1, 5]	heart rate vs pulmonary hypertension control group [1, 6]	systemic systolic pressure vs pulmonary hypertension control group [1, 6]
CC(C)(NS(C)(=O)=O)C(=O)N1CCC[C@@H](C(=O)NCc2ccc(C#N)cc2OC(F)(F)F)C1 [Example Compound 2, (R)—N-(4-cyano-2-(trifluoromethoxy)benzyl)-1-(2-methyl-2-(methylsulfonamido)propanoyl)piperidine-3-carboxamide]	2.1	lower	statistically significantly lower	statistically significantly lower	not significantly different	not significantly different										
CCC(=O)NC1(C(=O)N2CCC[C@@H](C(=O)NCc3ccc(C#N)cc3OC(F)(F)F)C2)CCC1 [Example Compound 1, (R)—N-(4-cyano-2-(trifluoromethoxy)benzyl)-1-(1-propionamidocyclobutanecarbonyl)piperidine-3-carboxamide]	1.1	statistically significantly lower	statistically significantly lower	statistically significantly lower	not significantly different	not significantly different	not significantly different	not significantly different	less thickened pulmonary arteries	less myocardial hypertrophy	less cell growth	higher	statistically significantly lower	statistically significantly lower	not significantly different	not significantly different
